Earlier results on one compound are cited in PubChem BioAssay AID1259409 (Chemical Carcinogenesis Research Information System (CCRIS), 2018).

The data set deals with rodent chemically induced tumor inhibition, incidence and multiplicity. Put plainly: CCRIS tumor inhibitor studies.

With `NCCS`, the “tumour outcome (control, treated, inhibition, significance)” value reads like this: (Carcinogen: N-METHYL-N'-NITRO-N-NITROSOGUANIDINE, 70-25-7, Dose [Inhibitor]: 0, 25 MG/KG IN 0.9% SALINE PLUS 2 MG/KG PROPANOLOL IN OLIVE OIL 1/2 D BEGINNING 1 WK POST LAST CARCINOGEN DOSE AND CONTI, Route [Inhibitor]: SUBCUTANEOUS, Species: RAT, Strain/Sex: WISTAR/MALE, Target Tissue: Type of Lesion: STOMACH: ADENOCARCINOMA, Dose [Carcinogen]: 100 UG/ML IN DRINKING WATER FOR 25 WK, Promoter: NONE USED) 16/20 (80%), 2/22 (9%), 89%, p<0.001; (Carcinogen: N-METHYL-N'-NITRO-N-NITROSOGUANIDINE, 70-25-7, Dose [Inhibitor]: 0, 25 MG/KG IN 0.9% SALINE PLUS 50 MG/KG CIMETIDINE IN OLIVE OIL 1/2 D BEGINNING 1 WK POST LAST CARCINOGEN DOSE AND CONT, Route [Inhibitor]: SUBCUTANEOUS, Species: RAT, Strain/Sex: WISTAR/MALE, Target Tissue: Type of Lesion: STOMACH: ADENOCARCINOMA, Dose [Carcinogen]: 100 UG/ML IN DRINKING WATER FOR 25 WK, Promoter: NONE USED) 16/20 (80%), 12/21 (57%), 29%, not significant; (Carcinogen: N-METHYL-N'-NITRO-N-NITROSOGUANIDINE, 70-25-7, Dose [Inhibitor]: 0, 25 MG/KG IN 1 ML/KG OLIVE OIL 1/2 D FOR STUDY DURATION BEGINNING POST CARCINOGEN TREATMENT (STUDY DURATION: 52 WK), Route [Inhibitor]: SUBCUTANEOUS, Species: RAT, Strain/Sex: WISTAR/MALE, Target Tissue: Type of Lesion: GLANDULAR STOMACH: ADENOCARCINOMA, Dose [Carcinogen]: 50 UG/ML DRINKING WATER FOR 25 WK) 13/18 (72%), 6/20 (30%), 58%, p<0.05; (Carcinogen: N-METHYL-N'-NITRO-N-NITROSOGUANIDINE, 70-25-7, Dose [Inhibitor]: 0, 50 MG/KG IN 0.9% SALINE 1/2 D BEGINNING POST CARCINOGEN DOSE AND CONTINUING FOR DURATION OF STUDY (STUDY DURATION: 52, Route [Inhibitor]: SUBCUTANEOUS, Species: RAT, Strain/Sex: WISTAR/MALE, Target Tissue: Type of Lesion: STOMACH: ADENOCARCINOMA, Dose [Carcinogen]: 50 UG/ML DRINKING WATER FOR 25 WK, Promoter: NONE USED) 12/19 (63%), 5/20 (25%), 58%, p<0.05; (Carcinogen: N-METHYL-N'-NITRO-N-NITROSOGUANIDINE, 70-25-7, Dose [Inhibitor]: 0, 280 MG/KG 1/2 D FOR STUDY DURATION (STUDY DURATION: 52 WK), Route [Inhibitor]: SUBCUTANEOUS, Species: RAT, Strain/Sex: WISTAR/MALE, Target Tissue: Type of Lesion: STOMACH: ADENOCARCINOMA, Dose [Carcinogen]: 50 UG/ML DRINKING WATER FOR 25 WK, Promoter: NONE USED) 75%, 18%, 76%, p<0.01; (Carcinogen: N-METHYL-N'-NITRO-N-NITROSOGUANIDINE, 70-25-7, Dose [Inhibitor]: 0.4% IN DIET FOR 26 WK GIVEN POST CARCINOGEN (STUDY DURATION: 52 WK), Route [Inhibitor]: ORAL, Species: RAT, Strain/Sex: WISTAR/MALE, Target Tissue: Type of Lesion: STOMACH: ADENOCARCINOMA, Dose [Carcinogen]: 50 UG/ML DRINKING WATER FOR 25 WK, Promoter: NONE USED) 16/20 (80%), 9/20 (45%), 44%, p<0.05. Moreover, the “tumour outcome (control, treated, inhibition, significance)” value (Carcinogen: TRANS-5-AMINO-3-[2-(5-NITRO-2-FURYL)VINYL]-1,2,4-OXADIAZOLE;SQL8506, 28754-68-9, Carcinogen: TRANS-5-AMINO-3-[2-(5-NITRO-2-FURYL)VINYL]-1,2,4-OXADIAZOLE;SQL8506, 28754-68-9, Dose [Inhibitor]: 210 MG/KG 16 HR BEFORE THE 1ST CARCINOGEN DOSE FOLLOWED BY IP INJECTIONS (210 MG/KG) IMMEDIATELY BEFORE EACH DOSE OF CAR, Route [Inhibitor]: INTRAMUSCULAR/INTRAPERITONEAL, Species: MOUSE, Strain/Sex: CD-1/FEMALE, Target Tissue: Type of Lesion: HEMATOPOIETIC: MYELOID LEUKEMIA, Dose [Carcinogen]: 1 G/KG 2/D FOR 5 D EVERY 4 WK FOR 3 COURSES TREATMENT, Promoter: NONE USED) is listed as 7/137 (5%), 0/28 (0%), 100%, not calculated; the “tumour outcome (control, treated, inhibition, significance)” value (Carcinogen: TRANS-5-AMINO-3-[2-(5-NITRO-2-FURYL)VINYL]-1,2,4-OXADIAZOLE;SQL8506, 28754-68-9, Carcinogen: TRANS-5-AMINO-3-[2-(5-NITRO-2-FURYL)VINYL]-1,2,4-OXADIAZOLE;SQL8506, 28754-68-9, Dose [Inhibitor]: 210 MG/KG 16 HR BEFORE THE 1ST CARCINOGEN DOSE FOLLOWED BY IP INJECTIONS (210 MG/KG) IMMEDIATELY BEFORE EACH DOSE OF CAR, Route [Inhibitor]: INTRAMUSCULAR/INTRAPERITONEAL, Species: MOUSE, Strain/Sex: CD-1/FEMALE, Target Tissue: Type of Lesion: LYMPHOID TISSUE: NONTHYMIC LYMPHOMA, Dose [Carcinogen]: 1 G/KG 2/D FOR 5 D EVERY 4 WK FOR 3 COURSES OF TREATMENT, Promoter: NONE USED) is 8/137 (6%), 0/28 (0%), 100%, not calculated; the “tumour outcome (control, treated, inhibition, significance)” value (Carcinogen: TRANS-5-AMINO-3-[2-(5-NITRO-2-FURYL)VINYL]-1,2,4-OXADIAZOLE;SQL8506, 28754-68-9, Carcinogen: TRANS-5-AMINO-3-[2-(5-NITRO-2-FURYL)VINYL]-1,2,4-OXADIAZOLE;SQL8506, 28754-68-9, Dose [Inhibitor]: 210 MG/KG 16 HR BEFORE THE 1ST CARCINOGEN DOSE FOLLOWED BY IP INJECTIONS (210 MG/KG) IMMEDIATELY BEFORE EACH DOSE OF CAR, Route [Inhibitor]: INTRAMUSCULAR/INTRAPERITONEAL, Species: MOUSE, Strain/Sex: CD-1/FEMALE, Target Tissue: Type of Lesion: LYMPHOID TISSUE: THYMIC LYMPHOMA, Dose [Carcinogen]: 1 G/KG 2/D FOR 5 D EVERY 4 WK FOR 3 COURSES OF TREATMENT, Promoter: NONE USED) is recorded as 22/137 (16%), 1/28 (4%), 75%, not calculated; the “tumour outcome (control, treated, inhibition, significance)” value (Carcinogen: TRANS-5-AMINO-3-[2-(5-NITRO-2-FURYL)VINYL]-1,2,4-OXADIAZOLE;SQL8506, 28754-68-9, Carcinogen: TRANS-5-AMINO-3-[2-(5-NITRO-2-FURYL)VINYL]-1,2,4-OXADIAZOLE;SQL8506, 28754-68-9, Dose [Inhibitor]: 210 MG/KG 16 HR BEFORE THE 1ST CARCINOGEN DOSE FOLLOWED BY IP INJECTIONS (210 MG/KG) IMMEDIATELY BEFORE EACH DOSE OF CAR, Route [Inhibitor]: INTRAMUSCULAR/INTRAPERITONEAL, Species: MOUSE, Strain/Sex: CD-1/FEMALE, Target Tissue: Type of Lesion: STOMACH: SQUAMOUS CARCINOMA, Dose [Carcinogen]: 1 G/KG 2/D FOR 5 D EVERY 4 WK FOR 3 COURSES OF TREATMENT, Promoter: NONE USED) is 60/137 (44%), 13/28 (46%), -4%, not calculated.
